# Assay results reported in publication PMC7826463, “Pamiparib dose escalation in Chinese patients with non‐mucinous high‐grade ovarian cancer or advanced triple‐negative breast cancer” (Cancer Medicine, 2020).
# Tested on: Chinese patients with advanced HGOC or TNBC
# Assay: Safety/tolerability (adverse events per NCI-CTCAE v4.03, DLTs) in phase 1 dose escalation (NCT03333915)
# Assay type: in vivo
# Details: for Discontinued treatment: Adverse event: count (percent)
# Description: This phase 1/2, open‐label, multicenter study assessed the safety and antitumor activity of pamiparib in Chinese patients ≥18 years with advanced solid tumors whose disease progressed despite standard therapy or for which there is no standard therapy. Phase 1 was a dose‐escalation study, with a 3 + 3 design, that evaluated the single‐agent safety/tolerability, pharmacokinetic (PK) profile, and preliminary antitumor activity of pamiparib and confirmed the RP2D in Chinese patients (Figure 1). The phase 2 dose‐expansion component of this study is investigating the single‐agent antitumor activity and safety/tolerability of pamiparib.
# In phase 1, patients received pamiparib at 20, 40, and 60 mg BID dose levels. The starting dose for pamiparib (20 mg BID) was selected as one‐third of the RP2D (60 mg BID) and one‐fourth of the MTD (80 mg BID), which were determined in the FIH study. […] Safety evaluations, including dose‐limiting toxicities (DLTs), of ≥3 patients completing one cycle of treatment at a specific dose level were required before proceeding to the next cohort with a higher dose level. Patients could continue the study treatment in 21‐day cycles and subsequent cycles at the discretion of the investigator.
# The primary objective in phase 1 was to evaluate the safety and tolerability of pamiparib. Safety and tolerability endpoint assessments were based on monitoring of treatment‐emergent adverse events (AEs), in addition to vital signs, electrocardiograms, physical examinations, and clinical laboratory results. The incidence and severity of all AEs and incidence of serious AEs were assessed according to the National Cancer Institute‐Common Terminology Criteria for Adverse Events v4.03.
# Approximately 14 to 18 evaluable patients were expected to enroll in the phase 1 part of the study. The safety population included all patients who received ≥1 dose of pamiparib. The PK population included all patients for whom valid pamiparib PK parameters could be estimated. Antitumor activity per RECIST v1.1 was assessed in all evaluable patients. Patients were considered response evaluable if they had measurable disease at baseline per RECIST v1.1 and had ≥1 post‐baseline tumor assessment, unless treatment had been discontinued due to clinical progression or death prior to tumor assessment. The population evaluable for CA‐125 response included patients in the safety population with baseline CA‐125 ≥2 x upper limit of normal.
smiles,measurement,setting,value
"C[C@]12CCCN1CC1=NNC(=O)c3cc(F)cc4[nH]c2c1c34 [pamiparib, Pamiparib]","Treatment-related adverse event Asthenia, All Grades",20 mg BID (n = 4),3 (75.0) n (%)
same,"Treatment-related adverse event Asthenia, Grade ≥3",20 mg BID (n = 4),0 n (%)
same,"Treatment-related adverse event Decreased appetite, All Grades",20 mg BID (n = 4),3 (75.0) n (%)
same,"Treatment-related adverse event Decreased appetite, Grade ≥3",20 mg BID (n = 4),0 n (%)
same,"Treatment-related adverse event Decreased hemoglobin, All Grades",20 mg BID (n = 4),0 n (%)
same,"Treatment-related adverse event Decreased hemoglobin, Grade ≥3",20 mg BID (n = 4),0 n (%)
same,"Treatment-related adverse event Decreased neutrophil count, All Grades",20 mg BID (n = 4),1 (25.0) n (%)
same,"Treatment-related adverse event Decreased neutrophil count, Grade ≥3",20 mg BID (n = 4),0 n (%)
same,"Treatment-related adverse event Decreased platelet count, All Grades",20 mg BID (n = 4),0 n (%)
same,"Treatment-related adverse event Decreased platelet count, Grade ≥3",20 mg BID (n = 4),0 n (%)
same,"Treatment-related adverse event Decreased white blood cell count, All Grades",20 mg BID (n = 4),2 (50.0) n (%)
same,"Treatment-related adverse event Decreased white blood cell count, Grade ≥3",20 mg BID (n = 4),0 n (%)
same,"Treatment-related adverse event Diarrhea, All Grades",20 mg BID (n = 4),0 n (%)
same,"Treatment-related adverse event Diarrhea, Grade ≥3",20 mg BID (n = 4),0 n (%)
same,"Treatment-related adverse event Increased GGT, All Grades",20 mg BID (n = 4),1 (25.0) n (%)
same,"Treatment-related adverse event Increased GGT, Grade ≥3",20 mg BID (n = 4),0 n (%)
same,"Treatment-related adverse event Increased conjugated bilirubin, All Grades",20 mg BID (n = 4),1 (25.0) n (%)
same,"Treatment-related adverse event Increased conjugated bilirubin, Grade ≥3",20 mg BID (n = 4),0 n (%)
same,"Treatment-related adverse event Nausea, All Grades",20 mg BID (n = 4),4 (100.0) n (%)
same,"Treatment-related adverse event Nausea, Grade ≥3",20 mg BID (n = 4),0 n (%)
same,"Treatment-related adverse event Prolonged electrocardiogram QT, All Grades",20 mg BID (n = 4),1 (25.0) n (%)
same,"Treatment-related adverse event Prolonged electrocardiogram QT, Grade ≥3",20 mg BID (n = 4),1 (25.0) n (%)
same,"Treatment-related adverse event Somnolence, All Grades",20 mg BID (n = 4),1 (25.0) n (%)
same,"Treatment-related adverse event Somnolence, Grade ≥3",20 mg BID (n = 4),0 n (%)
same,"Treatment-related adverse event Tachycardia, All Grades",20 mg BID (n = 4),0 n (%)
same,"Treatment-related adverse event Tachycardia, Grade ≥3",20 mg BID (n = 4),0 n (%)
same,"Treatment-related adverse event Vomiting, All Grades",20 mg BID (n = 4),1 (25.0) n (%)
same,"Treatment-related adverse event Vomiting, Grade ≥3",20 mg BID (n = 4),0 n (%)
same,Discontinued treatment: Adverse event,20 mg BID (n=4),0
same,"Treatment-related adverse event Asthenia, All Grades",40 mg BID (n = 4),4 (100.0) n (%)
same,"Treatment-related adverse event Asthenia, Grade ≥3",40 mg BID (n = 4),0 n (%)
same,"Treatment-related adverse event Decreased appetite, All Grades",40 mg BID (n = 4),3 (75.0) n (%)
same,"Treatment-related adverse event Decreased appetite, Grade ≥3",40 mg BID (n = 4),0 n (%)
same,"Treatment-related adverse event Decreased hemoglobin, All Grades",40 mg BID (n = 4),1 (25.0) n (%)
same,"Treatment-related adverse event Decreased hemoglobin, Grade ≥3",40 mg BID (n = 4),0 n (%)
same,"Treatment-related adverse event Decreased neutrophil count, All Grades",40 mg BID (n = 4),3 (75.0) n (%)
same,"Treatment-related adverse event Decreased neutrophil count, Grade ≥3",40 mg BID (n = 4),0 n (%)
same,"Treatment-related adverse event Decreased platelet count, All Grades",40 mg BID (n = 4),0 n (%)
same,"Treatment-related adverse event Decreased platelet count, Grade ≥3",40 mg BID (n = 4),0 n (%)
same,"Treatment-related adverse event Decreased white blood cell count, All Grades",40 mg BID (n = 4),3 (75.0) n (%)
same,"Treatment-related adverse event Decreased white blood cell count, Grade ≥3",40 mg BID (n = 4),0 n (%)
same,"Treatment-related adverse event Diarrhea, All Grades",40 mg BID (n = 4),1 (25.0) n (%)
same,"Treatment-related adverse event Diarrhea, Grade ≥3",40 mg BID (n = 4),0 n (%)
same,"Treatment-related adverse event Increased GGT, All Grades",40 mg BID (n = 4),1 (25.0) n (%)
same,"Treatment-related adverse event Increased GGT, Grade ≥3",40 mg BID (n = 4),0 n (%)
same,"Treatment-related adverse event Increased conjugated bilirubin, All Grades",40 mg BID (n = 4),1 (25.0) n (%)
same,"Treatment-related adverse event Increased conjugated bilirubin, Grade ≥3",40 mg BID (n = 4),0 n (%)
same,"Treatment-related adverse event Nausea, All Grades",40 mg BID (n = 4),3 (75.0) n (%)
same,"Treatment-related adverse event Nausea, Grade ≥3",40 mg BID (n = 4),0 n (%)
same,"Treatment-related adverse event Prolonged electrocardiogram QT, All Grades",40 mg BID (n = 4),1 (25.0) n (%)
same,"Treatment-related adverse event Prolonged electrocardiogram QT, Grade ≥3",40 mg BID (n = 4),0 n (%)
same,"Treatment-related adverse event Somnolence, All Grades",40 mg BID (n = 4),1 (25.0) n (%)
same,"Treatment-related adverse event Somnolence, Grade ≥3",40 mg BID (n = 4),0 n (%)
same,"Treatment-related adverse event Tachycardia, All Grades",40 mg BID (n = 4),1 (25.0) n (%)
same,"Treatment-related adverse event Tachycardia, Grade ≥3",40 mg BID (n = 4),0 n (%)
same,"Treatment-related adverse event Vomiting, All Grades",40 mg BID (n = 4),1 (25.0) n (%)
same,"Treatment-related adverse event Vomiting, Grade ≥3",40 mg BID (n = 4),0 n (%)
same,Discontinued treatment: Adverse event,40 mg BID (n=4),0
same,"Treatment-related adverse event Asthenia, All Grades",60 mg BID (n = 7),5 (71.4) n (%)
same,"Treatment-related adverse event Asthenia, Grade ≥3",60 mg BID (n = 7),0 n (%)
same,"Treatment-related adverse event Decreased appetite, All Grades",60 mg BID (n = 7),3 (42.9) n (%)
same,"Treatment-related adverse event Decreased appetite, Grade ≥3",60 mg BID (n = 7),0 n (%)
same,"Treatment-related adverse event Decreased hemoglobin, All Grades",60 mg BID (n = 7),5 (71.4) n (%)
same,"Treatment-related adverse event Decreased hemoglobin, Grade ≥3",60 mg BID (n = 7),3 (42.9) n (%)
same,"Treatment-related adverse event Decreased neutrophil count, All Grades",60 mg BID (n = 7),4 (57.1) n (%)
same,"Treatment-related adverse event Decreased neutrophil count, Grade ≥3",60 mg BID (n = 7),2 (28.6) n (%)
same,"Treatment-related adverse event Decreased platelet count, All Grades",60 mg BID (n = 7),3 (42.9) n (%)
same,"Treatment-related adverse event Decreased platelet count, Grade ≥3",60 mg BID (n = 7),1 (14.3) n (%)
same,"Treatment-related adverse event Decreased white blood cell count, All Grades",60 mg BID (n = 7),5 (71.4) n (%)
